Data taken from patent US7488712B2, “Histone deacetylase inhibitors and methods for producing the same” (Kyushu Institute of Technology, priority 2002, dated 2009).
*1 amine or outer side, *2 acyl side, *3 side chain or, on linkers, in order; H or OH if unused. Where a SMILES comes first, the peptide text is derived from it. Bridges are numbered along the chain shown (N, C = ends). Roman numbers before positions name the chains, in order. [ ]: non-standard residue; d: D form. hNle(7-SH) = O=C([C@H](CCCCCS[*:3])N[*:1])[*:2]; Gly((CH2)5SH) = N[C@@H](CCCCCS)C(=O)O; Pip = O=C(O)[C@@H]1CCCCN1; dPip = O=C(O)[C@H]1CCCCN1

Assays:
human HDAC1 = molecular target: T1, human HDAC1 (Homo sapiens, UniProt Q13547); test: In vitro HDAC inhibition activity, [3H]-acetylated histone substrate, HDAC1; assay type: biochemical
T1 construct: FLAG; made in house; host or cells: 293T cells (transient transfection, anti-FLAG immunoprecipitation, FLAG peptide elution)
T1 sequence (Q13547 whole entry): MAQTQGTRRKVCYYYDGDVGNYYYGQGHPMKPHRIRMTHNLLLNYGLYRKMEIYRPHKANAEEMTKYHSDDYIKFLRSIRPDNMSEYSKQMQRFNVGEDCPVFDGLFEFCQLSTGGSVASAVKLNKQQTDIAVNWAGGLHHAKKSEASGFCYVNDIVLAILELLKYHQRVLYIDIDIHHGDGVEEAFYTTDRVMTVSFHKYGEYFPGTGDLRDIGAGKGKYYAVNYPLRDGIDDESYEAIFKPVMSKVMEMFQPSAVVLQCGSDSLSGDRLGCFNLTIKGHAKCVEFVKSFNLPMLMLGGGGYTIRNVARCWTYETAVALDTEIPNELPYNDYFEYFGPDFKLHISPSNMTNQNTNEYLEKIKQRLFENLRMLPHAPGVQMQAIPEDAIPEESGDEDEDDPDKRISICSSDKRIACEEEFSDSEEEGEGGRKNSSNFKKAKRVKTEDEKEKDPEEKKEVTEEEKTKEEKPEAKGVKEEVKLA
Method: (§1) To measure HDAC inhibition activity, an HDAC solution was prepared as described below. 1×10^7 of 293T cells were plated on to a 100-mm dish and, after 24 hours, transfected with vectors (1 μg) expressing human HDAC1 and HDAC4 or mouse HDAC6, using LipofectAmine 2000 reagent (Life Technologies, Inc. Gaithersburg, Md.). […] The vectors were introduced for five hours in OPTI-MEM. The medium was then replaced with Dulbecco's modified Eagle's medium (DMEM), and incubated for 19 hours. The cells were washed with PBS, suspended in lysis buffer (50 mM Tris-HCl (pH7.5), 120 mM NaCl, 5 mM EDTA, and 0.5% Nonidet P-40), and sonicated. The supernatant was collected by centrifugation and nonspecific protein was removed using Protein A/G plus agarose beads (Santa Cruz Biotechnologies, Inc.). Anti-FLAG M2 antibodies (Sigma-Aldrich, Inc.) were added to the supernatant of cells expressing HDAC1 or HDAC4. Anti-HA antibodies (clone 3F10, Roche Molecular Biochemicals) were added to the supernatant of cells expressing HDAC6. Reaction in the respective mixtures was carried out at 4° C. for one hour. The resulting reaction mixtures were independently mixed with agarose beads and further reacted at 4° C. for one hour. The agarose beads were washed three times with lysis buffer and then washed once with HD buffer (20 mM Tris-HCl (pH8.0), 150 mM NaCl, 10% glycerol, and a complete protease inhibitor cocktail (Boehringer Mannheim, Germany)). […] The HDAC reaction solution was used for determining HDAC inhibition activity as shown below.
(§2) In vitro HDAC inhibition activity was evaluated as follows: A test compound was dissolved in DMSO and adjusted to 10 mM. This was used as an inhibitor stock solution. […] These reactions were stopped by adding 10 μl HCl. The [^3H] acetic acid excised by the enzyme reaction was extracted with ethyl acetate and subjected to radioactive dose measurement. As a negative control, the same procedure was carried out in which no inhibitor was added to the reaction system. The inhibition activity was expressed as a 50% inhibition concentration (“IC50 (nM)”) of the HDAC activity in the negative control (Tables 1 to 4).

human HDAC4 = molecular target: T2, human HDAC4 (Homo sapiens, UniProt P56524); test: In vitro HDAC inhibition activity, [3H]-acetylated histone substrate, HDAC4; assay type: biochemical
T2 construct: FLAG; made in house; host or cells: 293T cells (transient transfection, anti-FLAG immunoprecipitation, FLAG peptide elution)
T2 sequence (O15379 whole entry partner): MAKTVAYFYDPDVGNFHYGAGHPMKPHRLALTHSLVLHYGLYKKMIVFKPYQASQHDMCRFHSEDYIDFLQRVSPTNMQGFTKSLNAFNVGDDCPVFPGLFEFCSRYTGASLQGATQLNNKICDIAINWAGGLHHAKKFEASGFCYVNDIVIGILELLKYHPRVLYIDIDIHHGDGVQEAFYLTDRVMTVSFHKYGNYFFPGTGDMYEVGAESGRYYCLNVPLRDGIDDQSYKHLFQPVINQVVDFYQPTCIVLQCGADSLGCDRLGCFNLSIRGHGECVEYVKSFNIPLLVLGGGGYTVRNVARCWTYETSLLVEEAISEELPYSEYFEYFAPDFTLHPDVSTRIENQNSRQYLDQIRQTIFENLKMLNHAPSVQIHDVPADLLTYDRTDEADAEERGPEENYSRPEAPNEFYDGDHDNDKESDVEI
T2 sequence (P56524 whole entry): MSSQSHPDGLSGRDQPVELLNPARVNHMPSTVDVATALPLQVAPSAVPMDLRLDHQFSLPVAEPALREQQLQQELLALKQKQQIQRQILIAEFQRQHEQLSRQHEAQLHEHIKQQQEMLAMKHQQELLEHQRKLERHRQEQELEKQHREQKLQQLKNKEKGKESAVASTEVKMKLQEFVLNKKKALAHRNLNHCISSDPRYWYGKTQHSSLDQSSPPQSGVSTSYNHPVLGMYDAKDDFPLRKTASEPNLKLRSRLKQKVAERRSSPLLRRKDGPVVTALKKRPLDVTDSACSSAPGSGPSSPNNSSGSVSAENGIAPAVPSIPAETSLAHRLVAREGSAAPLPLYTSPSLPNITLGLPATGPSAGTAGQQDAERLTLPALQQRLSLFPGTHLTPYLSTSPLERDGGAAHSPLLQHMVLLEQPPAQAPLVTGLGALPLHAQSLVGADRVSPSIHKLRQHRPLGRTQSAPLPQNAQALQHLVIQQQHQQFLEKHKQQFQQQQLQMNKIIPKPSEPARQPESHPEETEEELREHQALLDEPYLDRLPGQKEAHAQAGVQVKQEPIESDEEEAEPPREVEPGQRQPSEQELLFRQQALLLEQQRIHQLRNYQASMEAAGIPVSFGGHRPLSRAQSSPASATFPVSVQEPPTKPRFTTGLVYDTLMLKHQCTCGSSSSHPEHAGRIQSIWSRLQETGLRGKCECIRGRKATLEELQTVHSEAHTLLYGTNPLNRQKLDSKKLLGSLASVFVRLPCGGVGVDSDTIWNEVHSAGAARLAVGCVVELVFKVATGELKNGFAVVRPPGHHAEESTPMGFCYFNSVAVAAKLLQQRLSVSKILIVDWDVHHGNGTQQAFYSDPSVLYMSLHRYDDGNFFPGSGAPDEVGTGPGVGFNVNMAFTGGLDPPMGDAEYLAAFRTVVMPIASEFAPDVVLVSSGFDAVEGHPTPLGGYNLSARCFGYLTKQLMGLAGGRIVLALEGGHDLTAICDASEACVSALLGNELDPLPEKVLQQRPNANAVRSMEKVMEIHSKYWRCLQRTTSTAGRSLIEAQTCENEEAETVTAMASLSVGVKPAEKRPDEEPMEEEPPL
Method: as §1, §2

mouse HDAC6 = molecular target: T3, mouse HDAC6 (Mus musculus, UniProt Q9Z2V5); test: In vitro HDAC inhibition activity, [3H]-acetylated histone substrate, HDAC6; assay type: biochemical
T3 construct: HA; made in house; host or cells: 293T cells (transient transfection, anti-HA immunoprecipitation, HA peptide elution)
T3 sequence (Q9Z2V5 1-1149): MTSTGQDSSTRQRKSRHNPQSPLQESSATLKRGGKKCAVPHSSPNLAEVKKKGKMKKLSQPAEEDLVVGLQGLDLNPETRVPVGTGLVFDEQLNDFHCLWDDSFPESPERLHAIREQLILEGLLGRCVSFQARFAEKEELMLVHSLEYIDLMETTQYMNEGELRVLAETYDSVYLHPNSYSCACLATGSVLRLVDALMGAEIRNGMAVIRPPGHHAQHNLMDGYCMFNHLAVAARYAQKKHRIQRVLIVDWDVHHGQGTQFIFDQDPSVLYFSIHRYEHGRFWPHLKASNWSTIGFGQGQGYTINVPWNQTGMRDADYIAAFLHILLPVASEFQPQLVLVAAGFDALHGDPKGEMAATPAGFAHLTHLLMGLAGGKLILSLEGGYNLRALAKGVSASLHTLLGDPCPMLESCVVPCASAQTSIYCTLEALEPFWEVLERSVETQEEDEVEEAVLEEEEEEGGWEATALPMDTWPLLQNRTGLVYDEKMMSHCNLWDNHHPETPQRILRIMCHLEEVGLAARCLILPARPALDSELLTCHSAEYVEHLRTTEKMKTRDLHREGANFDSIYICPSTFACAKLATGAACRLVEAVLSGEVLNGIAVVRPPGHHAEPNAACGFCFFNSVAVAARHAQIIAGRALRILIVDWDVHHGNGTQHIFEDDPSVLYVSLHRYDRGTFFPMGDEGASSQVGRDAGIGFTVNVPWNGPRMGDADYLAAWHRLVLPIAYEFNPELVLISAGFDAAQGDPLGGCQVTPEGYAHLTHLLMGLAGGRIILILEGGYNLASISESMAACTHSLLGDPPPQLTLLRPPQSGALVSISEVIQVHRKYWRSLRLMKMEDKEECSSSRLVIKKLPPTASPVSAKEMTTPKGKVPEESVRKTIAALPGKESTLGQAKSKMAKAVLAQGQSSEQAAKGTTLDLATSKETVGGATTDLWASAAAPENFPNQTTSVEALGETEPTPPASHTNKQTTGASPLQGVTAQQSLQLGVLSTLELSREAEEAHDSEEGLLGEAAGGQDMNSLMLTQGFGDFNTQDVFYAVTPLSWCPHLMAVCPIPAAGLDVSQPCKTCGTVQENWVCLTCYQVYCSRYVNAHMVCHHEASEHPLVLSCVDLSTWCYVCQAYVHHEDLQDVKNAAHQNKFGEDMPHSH
Method: as §1, §2

[1] = test system: human wild-type p21 promoter; test: p21 promoter-inducing activity (luciferase) in MFLL-9 cells; assay type: cell-based
Method: The HDAC inhibition activity in vivo was measured using p21 promoter-inducing activity as an index, as shown below. The MFLL-9 cells employed for the experiments stably maintained fusion genes of human wild-type p21 promoter and luciferase (Dr. B. Vogelstaein). Using phenol red-free DMEM medium comprising 10% FBS, cultivation was carried out in a steam-saturated incubator at 37° C. with 5% carbon dioxide. The MFLL-9 cells were plated at a density of 85,000 cells/well on a 96-well microtiter plate, each in 99 μl of the above-mentioned medium. These were then cultivated for six hours. One μl of test compound solution was added to each well, which was then cultured for another 18 hours.
The intensity of luminescence caused by the product of the enzyme reaction for intracellular luciferase expression was measured using Luc Lite (Packard BioScience Company). A group in which test compounds were not added was used as a negative control group. The values measured for this group were used as a standard. The activities for each concentration of added test compound were expressed relative to the above-mentioned standard value, 1.

[2] = Table 1, X = H (coexisting with DTT)
[3] = Table 1, X = H (coexisting with DTT), 50% of maximum active value for TSA
[4] = Table 3, hybrid with DTT (/DTT)

| SMILES | IC50 (human HDAC1; [2]) | IC50 (human HDAC4; [2]) | IC50 (mouse HDAC6; [2]) | EC50 [1, 3] | further results |
| --- | --- | --- | --- | --- | --- |
| CC[C@H](C)[C@@H]1NC(=O)[C@@H](Cc2ccc(OC)cc2)NC(=O)[C@H](CCCCSSCCCC[C@@H]2NC(=O)[C@H]3CCCN3C(=O)[C@H]([C@@H](C)CC)NC(=O)[C@@H](Cc3ccc(OC)cc3)NC2=O)NC(=O)[C@H]2CCCN2C1=O [SCOP 302, cyclo(-L-Am6(-)-D-Tyr(Me)-L-Ile-D-Pro-] |  |  |  |  | IC50 (human HDAC1; Table 2, homodimer): 7200 nM; IC50 (human HDAC4; Table 2, homodimer): > 500000 nM; IC50 (mouse HDAC6; Table 2, homodimer): > 500000 nM; EC50 ([1]; Table 2, homodimer): > 100 µM |
| CC[C@H](C)[C@@H]1NC(=O)[C@@H](Cc2ccc(OC)cc2)NC(=O)[C@H](CCCCCS)NC(=O)[C@H]2CCCCN2C1=O [SCOP 150] (cyclo([Gly((CH2)5SH)][dY](Me)I[dPip])) | 2.1 nM | 4.26 nM | 5560 nM | 0.504 µM |  |
| CC[C@H](C)[C@@H]1NC(=O)[C@@H](Cc2ccc(OC)cc2)NC(=O)[C@H](CCCCCSSCCCCC[C@@H]2NC(=O)[C@@H]3CCCN3C(=O)[C@H]([C@@H](C)CC)NC(=O)[C@@H](Cc3ccc(OC)cc3)NC2=O)NC(=O)[C@@H]2CCCN2C1=O [SCOP 296, cyclo(-L-Am7(-)-D-Tyr(Me)-L-Ile-L-Pro-)] (I: cyclo([hNle(7-SH)][dY](Me)IP) / II: cyclo([hNle(7-SH)][dY](Me)IP); disulfide I:1-II:1) |  |  |  |  | IC50 (human HDAC1; Table 2, homodimer): 763 nM; IC50 (human HDAC4; Table 2, homodimer): 222 nM; IC50 (mouse HDAC6; Table 2, homodimer): > 500000 nM; EC50 ([1]; Table 2, homodimer): 7.73 µM |
| CC[C@H](C)[C@@H]1NC(=O)[C@@H](Cc2ccc(OC)cc2)NC(=O)[C@H](CCCCCS)NC(=O)[C@@H]2CCCCN2C1=O [SCOP 149] (cyclo([Gly((CH2)5SH)][dY](Me)I[Pip])) | 2.37 nM | 5.22 nM | 44300 nM | 0.596 µM |  |
| CC[C@H](C)[C@@H]1NC(=O)[C@@H](Cc2ccc(OC)cc2)NC(=O)[C@H](CCCCCSSCCO)NC(=O)[C@H]2CCCN2C1=O [SCOP 404, cyclo(-L-Am7(SMEt)-D-Tyr(Me)-L-Ile-D-Pro-)] |  |  |  |  | IC50 (human HDAC1; [4]): 2.44 nM; IC50 (human HDAC1; Table 3, hybrid, without DTT): 217 nM; IC50 (human HDAC4; [4]): 13 nM; IC50 (human HDAC4; Table 3, hybrid, without DTT): 355 nM; IC50 (mouse HDAC6; [4]): 15400 nM; IC50 (mouse HDAC6; Table 3, hybrid, without DTT): 201000 nM; EC50 [1, 4]: 0.754 µM; EC50 ([1]; Table 3, hybrid, without DTT): 1.36 µM |
| CC[C@H](C)[C@@H]1NC(=O)[C@@H](Cc2ccc(OC)cc2)NC(=O)[C@H](CCCCS)NC(=O)[C@H]2CCCN2C1=O [SCOP 151] | 932 nM | 7340 nM | 28500 nM | > 100 µM |  |
| CC[C@H](C)[C@@H]1NC(=O)[C@@H](Cc2ccc(OC)cc2)NC(=O)[C@H](CCCCCCCS)NC(=O)[C@H]2CCCN2C1=O [SCOP 154] | 38.1 nM | 99.2 nM | 2470 nM | 31.4 µM |  |
